Each block holds one substance with its values, some of them ahead of it.
How the values were obtained:
H-2Kd [1] = biological target: T1, H-2Kd (Mus musculus, UniProt P01902); assay: Competitive inhibition of 125I-LLO; type: binding; settings: for binding to H-2Kd (in words): peptide-binding inhibition experiments, Fig. 1
H-2Kd [2] = biological target: T1, H-2Kd; settings: cited from earlier work
Meth A = assay: 4-h 51Cr release assay of vaccine-induced effectors, Meth A targets; type: cell-based, mouse; settings: 239CM-induced CTL; separate experiment, data not shown
CMS1 = assay: 4-h 51Cr release assay of vaccine-induced effectors, CMS1 targets; type: cell-based, mouse; settings: separate experiment, data not shown
[3] = cited from earlier work

T1 sequence (P01902 whole entry, looked up): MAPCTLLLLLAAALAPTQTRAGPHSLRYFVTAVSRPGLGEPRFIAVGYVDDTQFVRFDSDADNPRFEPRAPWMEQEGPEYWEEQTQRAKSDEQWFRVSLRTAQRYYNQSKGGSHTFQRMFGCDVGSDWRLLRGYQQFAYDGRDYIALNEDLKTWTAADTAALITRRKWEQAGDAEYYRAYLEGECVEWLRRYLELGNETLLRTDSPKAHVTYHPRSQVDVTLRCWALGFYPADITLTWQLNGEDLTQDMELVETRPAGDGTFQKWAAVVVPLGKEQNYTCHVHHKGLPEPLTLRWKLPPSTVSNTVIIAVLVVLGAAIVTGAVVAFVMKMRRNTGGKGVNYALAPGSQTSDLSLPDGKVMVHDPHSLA

- binding to H-2Kd (in words) (H-2Kd [1]): capable of binding to H-2Ka
Substance: 234CW: wild-type peptide p53(232-240) (KYMCNSSCM; UniProt P02340 232-240, looked up, fragment)

- relative binding to H-2Kd (in words) (H-2Kd [1]; compared with other peptides in the same assay): comparable to that of the parent peptide
Substance: GFKDGNEYI [LLO(Y2F), reference compound]

Substance: GYKDGNEYI [LLO]
- binding affinity to H-2Kd (in words) (H-2Kd [2]): high affinity

Substance: KYMCNSSFM [239CM]
- binding to H-2Kd (in words) (H-2Kd [1]): capable of binding to H-2Ka
- induction of CTL reactive against Meth A (Meth A): not Meth A
- induction of CTL reactive against CMS1 (CMS1): induced CTL reactive against CMS1

Substance: LFCQLAKTC [132CW]
- immunogenicity (in words) [3]: lack of immunogenicity

Substance: LFFQLAKTC [132CM]
- immunogenicity (in words) [3]: lack of immunogenicity

Substance: MTEVVRtkCP [168CW]
- immunogenicity (in words) [3]: lack of immunogenicity

Substance: MTGVVR.R.CP [168CM]
- immunogenicity (in words) [3]: lack of immunogenicity
